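These data come from cells grown in 96-well plates and exposed to compound for 48 hours at five concentrations. At the TGI there is no net growth.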
Tests used:
Test in all cases: growth of human tumour cells (NCI), 48 h
RXF 393 renal = system: RXF 393 renal
HT29 colon = system: HT29 colon
UACC-257 melanoma = system: UACC-257 melanoma
SK-MEL-5 melanoma = system: SK-MEL-5 melanoma
MDA-N = system: MDA-N
CAKI-1 renal = system: CAKI-1 renal
SF-268 CNS = system: SF-268 CNS
RPMI-8226 leukemia = system: RPMI-8226 leukemia
MDA-MB-435 = system: MDA-MB-435
UO-31 renal = system: UO-31 renal
OVCAR-5 ovarian = system: OVCAR-5 ovarian
786-0 renal = system: 786-0 renal
U251 CNS = system: U251 CNS
IGROV1 ovarian = system: IGROV1 ovarian
SNB-75 CNS = system: SNB-75 CNS
TK-10 renal = system: TK-10 renal
OVCAR-4 ovarian = system: OVCAR-4 ovarian
EKVX NSCLC = system: EKVX NSCLC

Row | Structure (SMILES) | TGI (RXF 393 renal) | TGI (HT29 colon) | TGI (UACC-257 melanoma) | TGI (SK-MEL-5 melanoma) | TGI (MDA-N) | TGI (CAKI-1 renal) | TGI (SF-268 CNS) | TGI (RPMI-8226 leukemia) | TGI (MDA-MB-435) | TGI (UO-31 renal) | TGI (OVCAR-5 ovarian) | TGI (786-0 renal) | TGI (U251 CNS) | TGI (IGROV1 ovarian) | TGI (SNB-75 CNS) | TGI (TK-10 renal) | TGI (OVCAR-4 ovarian) | TGI (EKVX NSCLC)
1 | Nc1ccc(CCSSCCc2ccc(N)cc2)cc1 | 44.6 µM | 49.7 µM | 51.7 µM | > 52.7 µM | > 79.6 µM | > 85.2 µM | 45.2 µM | > 81.8 µM | > 86.9 µM | > 82.8 µM | 83.5 µM | 36.6 µM | 41.6 µM | > 100 µM | > 94.5 µM | > 100 µM | > 100 µM | > 100 µM
2 | Cc1ccc(N2CCC3(CC2)OCCO3)cc1 | > 100 µM | > 100 µM | > 100 µM | > 100 µM | > 100 µM | > 100 µM | > 100 µM | > 100 µM | > 100 µM | > 100 µM | > 100 µM | > 100 µM | > 100 µM | > 100 µM | > 100 µM | > 100 µM | > 100 µM | > 100 µM
3 | CCOc1cc2c(cc1O)CC[C@@H]1[C@@H]2CC[C@]2(C)C(N)CC[C@@H]12 (some centres undefined) | 7.33 µM | 6.4 µM | 16.3 µM | 16.7 µM | 3.6 µM | 22.7 µM | 23.8 µM | 10 µM | 3.96 µM | 16.2 µM | 36.9 µM | 13.8 µM | 9.37 µM | 12.6 µM | 6.48 µM | 15 µM | 58.7 µM | 20.9 µM
4 | CC1=C(C)C1[N+](=O)[O-] | > 100 µM | > 100 µM | > 100 µM | > 100 µM | > 100 µM | > 100 µM | > 100 µM | > 100 µM | > 100 µM | > 100 µM | > 100 µM | > 100 µM | > 100 µM | > 100 µM | > 100 µM | > 100 µM | > 100 µM | > 100 µM
5 | O=C1C=CC2(O)OCCN(CCO)C2=C1 (centres undefined) (tested in a mixture with another compound) | > 100 µM | > 100 µM | > 100 µM | > 100 µM | > 100 µM | > 100 µM | > 100 µM | > 100 µM | > 100 µM | > 100 µM | > 100 µM | > 100 µM | > 100 µM | > 100 µM | > 100 µM | > 100 µM | > 100 µM | > 100 µM
6 | CC1=C(C(=O)N(C(C)C)C(C)C)CC(C(=O)N(C(C)C)C(C)C)=C(C)N1 | > 100 µM | > 100 µM | > 100 µM | > 100 µM | > 100 µM | > 100 µM | > 100 µM | > 100 µM | > 100 µM | > 100 µM | > 100 µM | > 100 µM | > 100 µM | > 100 µM | > 100 µM | > 100 µM | > 100 µM | > 100 µM
7 | Nc1nc2n[nH]nc2c(=O)[nH]1 | 2.95 µM | > 100 µM | 56.2 µM | 13.8 µM | 15.4 µM | > 100 µM | > 100 µM | 15.7 µM | 29 µM | 29.3 µM | > 88.4 µM | > 100 µM | > 100 µM | > 100 µM | > 66.8 µM | 12.7 µM | > 100 µM | > 100 µM
8 | CC1(c2cccc(Cl)c2)CC(c2cccc(Cl)c2)=C(C#N)C(=C(C#N)C#N)N1 (centres undefined) | 29.3 µM | 91.2 µM | 42 µM | 28.6 µM | 39.7 µM | 32.3 µM | 20.1 µM | 59.4 µM | 35.3 µM | 29.3 µM | 46.4 µM | 30.1 µM | 37.8 µM | 31.8 µM | 34.3 µM | 31.8 µM | 32.6 µM | 46.5 µM
9 | CCOC(=O)[C@@H]1CCN2CN(c3ccc(OC)cc3)N=C(c3ccccc3)[C@@]12c1ccccc1 | 35.7 µM | 72.4 µM | 49.7 µM | 30.5 µM | > 100 µM | > 100 µM | > 100 µM | 82.6 µM | > 100 µM | 77.2 µM | > 100 µM | 51.7 µM | 79.6 µM | 72.1 µM | 57.7 µM | > 100 µM | > 100 µM | > 100 µM
10 | CC(C)(C)OC(=O)NC(CCC(=O)OCc1ccccc1)C(=O)NCCCO (centres undefined) | > 100 µM | > 100 µM | > 100 µM | > 100 µM | > 100 µM | > 100 µM | > 100 µM | > 100 µM | > 100 µM | > 100 µM | > 100 µM | > 100 µM | > 100 µM | > 100 µM | > 100 µM | > 100 µM | > 100 µM | > 100 µM
11 | O=P1(c2ccccc2)C(c2ccccc2)=CC=C1c1ccccc1 | > 100 µM | 50.2 µM | > 100 µM | 28.4 µM | 62.1 µM | > 100 µM | > 100 µM | 19.4 µM | 36.4 µM | > 100 µM | > 100 µM | > 100 µM | 43.8 µM | > 100 µM | 60.1 µM | 60.1 µM | > 100 µM | > 100 µM
12 | Nc1[nH]c(=S)c2c(N)n[nH]c2c1C(=O)Nc1ccccc1 | > 100 µM | > 100 µM | > 100 µM | > 100 µM | > 100 µM | > 100 µM | > 100 µM | > 100 µM | > 100 µM | > 100 µM | > 100 µM | > 100 µM | > 100 µM | > 100 µM | > 100 µM | > 100 µM | > 100 µM | > 100 µM
13 | NC(=S)N/N=C1/CCCC2CCCC[C@@H]12 (some centres undefined) | > 100 µM | > 100 µM | > 100 µM | > 100 µM | > 100 µM | > 100 µM | > 100 µM | > 100 µM | > 100 µM | > 100 µM | > 100 µM | > 100 µM | > 100 µM | > 100 µM | > 100 µM | > 100 µM | > 100 µM | > 100 µM
